We go through three compounds from patent publication US20140100138A1, “MECHANICAL STRESS RESPONSE ANALYSIS OF CELLS AND TISSUES” (The Regents of The University of California, priority 2012, published 2014).

For assay [1] the following is noted: 2-APB 10 μM, 30 μM or 100 μM; cited from earlier work.
The subject of assay [2] is HUVECs. The assay can be described thus: 96-well plate screen of microtsunami-generated Ca2+ signaling, percentage of cells signaling 100-150 μm from μCB center. The assay is classed as cell-based, human. As to conditions: 96-well screen; for effect on microtsunami-induced Ca2+ signaling in Ca2+ containing media: HHBSS+ with 2 g/L D-glucose, FIG. 9D columns 8-10; for effect on microtsunami-induced Ca2+ signaling in Ca2+ free media: HHBSS- with 3 mM EGTA, 2-APB 10-100 μM, PP2 10 μM, Verapamil 50 nM, FIG. 9D columns 1-5. How it is done: 96 well plates (Invitro-Scientific) were coated with fibronectin and P4 HUVECs were plated in each well. […] DMSO was also added as a control corresponding to the highest amount added from solution of the drugs, 0.3%. The first seven columns contained the previously used HHBSS- with 3 mM EGTA and the last five columns contained HHBSS+ supplemented with 2 g/L D-glucose.
The experiments were performed in a 96-well plate where twelve conditions, each with eight replicates, were tested for their potential effect on μTsunami generated Ca^2+ signaling.

Assay [3] deals with HUVECs. In words: Cell lysate / ATP control experiments for Ca2+ signaling with and without microtsunami exposure. Format: cell-based, human. Here is the method: HUVECs grown in a tissue culture flask at full confluency were resuspended in standard HBSS- at a concentration of 1.5×10^7 cells/mL. Cell lysate solution was prepared by subjecting this solution to repeated freeze-thaw cycles at −80° C. and then sonicated on ice for 30 s.
Exposure to cell lysate alone was confirmed as not responsible for the observed Ca^2+ dynamics. Cells were dosed with a solution of cell lysate immediately following microtsunami exposure. In addition, cells were exposed to cell lysate alone. As positive controls, the Ca^2+ signaling response produced by ATP was measured with and without microtsunami exposure. As a negative control, Ca^2+ signaling without cell lysate, ATP, or microtsunami exposure was measured.
Probability of Ca2+ signaling produced by microtsunami exposure is plotted as a function of distance from the site of laser microbeam irradiation. Two control experiments were conducted to test whether the observed Ca^2+ was due to cellular exposure to cell lysate produced by the microtsunami. In the first, 150 μL of cell lysate was administered following a Ca^2+ signaling event generated by microtsunami exposure. […] Both experiments elicited an average signaling probability of <1%. […] The reduced ATP signaling probability following microtsunami exposure was due to cell lysis/necrosis produced by the microtsunami.

Bounds are passed on as bounds.

Regarding `NCCOB(c1ccccc1)c1ccccc1` [2-APB, 2-Aminoethoxydiphenylborate], in assay [1], the “inhibition of Ca2+ release following stimulation using a bolus of ATP” value is on record as “dose-dependent inhibition of Ca^2+ release”. In the assay on HUVECs [2], the “effect on microtsunami-induced Ca2+ signaling in Ca2+ containing media” value is given as “suppression of signaling” and the “effect on microtsunami-induced Ca2+ signaling in Ca2+ free media” value was “dose-dependent inhibitory effect”.

For `Nc1ncnc2c1ncn2[C@@H]1O[C@H](COP(=O)(O)OP(=O)(O)OP(=O)(O)O)[C@@H](O)[C@H]1O` [ATP], the “average Ca2+ signaling probability, substance given following microtsunami exposure” value in the assay with HUVECs [3] (administered after microtsunami, ATP 50 μM, cell lysate 150 μL) is 60%. For the same compound, the “average Ca2+ signaling probability, substance given without microtsunami exposure” value in the assay with HUVECs [3] (no microtsunami, ATP 50 μM) was greater than 90%. The “Ca2+ signaling response (in words)” value with HUVECs [3] (with and without microtsunami exposure) is recorded as “strong Ca^2+ signaling response”.

Take `CC(C)(C)n1nc(-c2ccc(Cl)cc2)c2c(N)ncnc21` [PP2]: in the assay with HUVECs [2], the “effect on microtsunami-induced Ca2+ signaling in Ca2+ containing media” value is given as “significant microtsunami-induced mechanosignaling was observed” and the “effect on microtsunami-induced Ca2+ signaling in Ca2+ free media” value is recorded as “neither PP2 nor Verapamil (FIG. 9D, columns 4, 5) affected Ca^2+ signaling”.
